# Reference: patent publication US20060031949A1, “Inducible expression systems for modulating the expression of target genes in eukaryotic cells and non-human animals” (priority 2004, published 2006)
# B1: 2O2-Tyr338: transgene using the 2O2 promoter to express an shRNA against tyrosinase (SEQ ID NO: 47) (nucleic acid)
# DNA: GAATTCCAGGCAAAACGCACCACGTGACGGAGCGTGACCGCGCGCCGAGCGCGCGCCAAGGTCGGGCAGGAAGAGGGCCTATTTCCCATGATTCCATCATATTTGCATATACGATACAAGGCTGTTAGAGAGATAATTAGAATTAATTCGACTGTAAACACAAAGATATTAGTATAAAATACGTGACGTAGAAAGTAATAATTTCTTGGGTAGTTTGCAGTTTTAAAATTATGTTTTAAAATGGACTATCATATGCTTACCGTAACTTGAAACTCCCTATCAGTGATAGAGATTATATATCTCCCTATCAGTGATAGAGACCGGCAACTTCATGGGTTTCATTCAAGAGATGAAACCCATGAAGTTGCCTTTTTTAAGCTT
# modifications: 2O2 promoter transgene; 2O2-Tyr338
# B2: 2O2-Tyr731: transgene using the 2O2 promoter to express an shRNA against tyrosinase (SEQ ID NO: 46) (nucleic acid)
# DNA: GAATTCCAGGCAAAACGCACCACGTGACGGAGCGTGACCGCGCGCCGAGCGCGCGCCAAGGTCGGGCAGGAAGAGGGCCTATTTCCCATGATTCCATCATATTTGCATATACGATACAAGGCTGTTAGAGAGATAATTAGAATTAATTCGACTGTAAACACAAAGATATTAGTATAAAATACGTGACGTAGAAAGTAATAATTTCTTGGGTAGTTTGCAGTTTTAAAATTATGTTTTAAAATGGACTATCATATGCTTACCGTAACTTGAAACTCCCTATCAGTGATAGAGATTATATATCTCCCTATCAGTGATAGAGACCGTGACATTTGCACAGATGATTCAAGAGATCATCTGTGCAAATGTCACTTTTTTAAGCTT
# modifications: 2O2-Tyr731
# How the values were obtained:
# human Hif1α = experiment: Western analysis of Hif1α protein in HeLaTREx stable clones carrying 2O2_Hif1, doxycycline induction; type: cell-based
# Description: Cells were directly lysed on 6-well plates in 1× Laemmli sample buffer. Proteins were separated by SDS-PAGE, transferred to PVDF membrane, and western blotting was performed using antibodies against Chk1 (1:200, Santa Crutz Biotechnology, Santa Crutz, Calif. 95060), HIF-1 alpha (1:500, BD Bioscience, Palo Alto, Calif. 94303) or tetR (1:2000, Mo Bi Tec, Germany).
# To determine whether the 2O2 promoter retains the ability to respond to doxycycline after integrating into chromosomes, the inventors used a commercial tetR expressing cell line, HeLaTREx, (Invitrogen Corp., Carlsbad, Calif. 92008) to establish stable clones that carried the 2O2 promoter linked to an shRNA targeting human Hif1α (2O2_Hif1).
# Using the best-regulated 2O2_Hif1 clone (Hif1-7), the inventors further characterized the time and dose dependency of doxycycline induction of the 2O2 expression system. […] The doxycycline concentration that is required for maximal induction of the 2O2 system was determined in a dose-response experiment.
# Hif1α [1] = experiment: Hif1α protein level (western) in D54_Hif clones with or without doxycycline; type: cell-based, human; settings: D54_Hif18 cells, 1 μg/ml doxycycline
# Description: (§1) Cells were incubated in the presence or absence of 1 μg/ml doxycycline. After thirty-six hours, cells were either untreated (N) or subjected to hypoxia treatment (H) for an additional sixteen hours. The cells were lysed and analyzed by western blotting using antibodies against Hif1α (upper panel) or Hif1β (lower panel). […] Cells were transfected with either pGL3-control/pRL-TK (left panel) or 1×HRE/pRL-TK plasmids (right panel) in the presence or absence of 1 μg/ml doxycycline. Thirty-six hours following transfection, cells were subjected to hypoxia treatment. Luciferase activities were determined sixteen hours after hypoxia treatment. […] Cells were incubated in the presence or absence of 1 μg/ml doxycycline. After thirty-six hours, cells were either untreated (N) or subjected to hypoxia treatment (H) for an additional sixteen hours. Total RNA were prepared and used in quantitative PCR for analyzing the level of the indicated genes.
# (§2) To assess the potential therapeutic effect of Hif1 inhibition, we established stable cell lines from D54MG parental cells that express an shRNA against Hif1α under the control of doxycycline. A panel of 8 shRNAs against Hif1α was first screened for their abilities to knockdown the target (data not shown), and the best shRNA was selected for the creation of Hif1α knockdown cell lines. […]
# [2] = test system: Hif1 dependent transcriptional activity; experiment: Hif1 reporter (1×HRE) luciferase activity in D54_Hif clones; type: cell-based, human; settings: D54_Hif25 cells, 1 μg/ml doxycycline, hypoxia
# Description: as §1, §2
# Hif1α [3] = experiment: Hif1α knockdown in subcutaneous xenograft tumors (QPCR, IHC), doxycycline in drinking water; type: in vivo, SCID mice; settings: D54_Hif25 tumors, 1 mg/ml doxycycline in drinking water for 3 days
# Description: Mice bearing 200-300 mm^3 tumors were supplied with doxycycline (1 mg/ml) for 3, 6, 9 or 12 days. Tumors were collected at the end of treatment and Hif1α mRNA levels were determined by QPCR. Tumors from mice without Dox treatment were used as controls. […] Hif1α mRNA level was determined by QPCR. […] The Hif1α expression level was examined by IHC, and quantified using AxioVision 4 (Zeiss).
# To determine whether target knockdown can be induced in xenograft tumors, the D54_Hif25 cells were injected subcutaneously into SCID mice. After tumors reached an average size of 200 mm^3, the mice were supplied with drinking water containing 1 mg/ml doxycycline to induce the expression of Hif1α shRNA. After treating the mice with doxycycline for 3, 6, 9, or 12 days, the tumors were collected and analyzed by QPCR to determine the Hif1α messenger level. […] Examination of the tumor samples by immunohistochemistry indicated a clear reduction of the Hif1α protein from day 3 onward (data not shown).
# To determine whether the ability to induce target knockdown would be impaired over long-term doxycycline treatment or when the tumors reach a very large size, further analysis was performed of the knockdown of Hif1α in tumors from mice treated with doxycycline for 45 days. The average tumor size at the end of treatment was 2000 mm^3. […]
# tyrosinase = experiment: Tyrosinase knockdown mice by pronuclear injection of 2O2 promoter transgenes; type: in vivo; settings: mice without tetR expression
# Description: Pronuclear injection is a well-established method for creating transgenic animals. In this approach, a DNA fragment (the transgene) is injected into the pronuclear stage of fertilized eggs, and the injected eggs are implanted into pseudopregnant animals. In a typical experiment, 50-80 eggs are injected in which half of the injected eggs will survive to generate neonates and 5%-20% of the neonates will contain the transgene.
# Tyrosinase was selected as a target to knockdown. Tyrosinase is a key enzyme in melanin production, and the knockdown of tyrosinase in mice will generate an apparent coat color change.
# To determine whether a modified pol III dependent promoter, such as the 2O2 promoter, is suitable for the creation of knockdown animals, transgenes were created that used the 2O2 promoters to express the two best shRNAs against tyrosinase (2O2-Tyr731 (SEQ ID NO: 46) and 2O2-Tyr338 (SEQ ID NO: 47)). These transgenes are shown below. The bold characters represent the shRNA sequences and the underscored characters represent the promoter sequences. […] In mice without tetR expression, the 2O2 promoter is expected to be constitutively active.
molecule,measurement,setting,value
C[C@H]1c2cccc(O)c2C(=O)C2=C(O)[C@]3(O)C(=O)C(C(N)=O)=C(O)[C@@H](N(C)C)[C@@H]3[C@@H](O)[C@@H]21 [doxycycline],inhibition of Hif-1 protein,"human Hif1α; clone Hif1-7, 0.1 ng/ml of doxycycline",more than 90%
same,inhibition of Hif-1 protein,"human Hif1α; clone Hif1-7, 24 hours after doxycycline treatment",more than 90%
same,doxycycline concentration at which maximal inhibition of Hif1α protein was reached,"human Hif1α; clone Hif1-7, dose-response experiment",10 ng/mL
same,reduction of the Hif1α protein,Hif1α [1],80%
same,reduction of the Hif1 reporter activity,[2],80%
same,reduction of the Hif1α mRNA in tumors,Hif1α [3],80%
B1,viability of transgene-positive embryos,"tyrosinase; 40 pups without transgene, two dead embryos with it",embryonic lethality
B2,coat color of transgene-positive pups,tyrosinase; three of 20 pups carried the transgene,different degrees of coat color change
